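The concentration for 50% growth inhibition is given as GI50. TGI denotes the concentration required for complete inhibition of growth.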
What was measured:
Test in all cases: growth of human tumour cells (NCI), 384-well format
HCT-116 colon = system: HCT-116 colon
K-562 leukemia = system: K-562 leukemia
NCI-H522 lung = system: NCI-H522 lung
HCT-15 colon = system: HCT-15 colon
SK-MEL-2 melanoma = system: SK-MEL-2 melanoma
DU-145 prostate = system: DU-145 prostate
SK-OV-3 ovarian = system: SK-OV-3 ovarian
SW-620 colon = system: SW-620 colon
NCI-H460 NSCLC = system: NCI-H460 NSCLC
SN12C renal = system: SN12C renal
PC-3 prostate = system: PC-3 prostate
A549 NSCLC = system: A549 NSCLC
HOP-62 NSCLC = system: HOP-62 NSCLC

## Cn1ncc2cc(-c3cnc(N)c(Cl)c3N3CCC4(CCNC4=O)CC3)ccc21
HCT-116 colon
  GI50: 29.4 µM
  TGI: > 100 µM
K-562 leukemia
  GI50: 36.1 µM
  TGI: > 100 µM
NCI-H522 lung
  GI50: 20.3 µM
  TGI: > 100 µM
HCT-15 colon
  GI50: 22.5 µM
  TGI: 83.4 µM
SK-MEL-2 melanoma
  GI50: 17.6 µM
  TGI: 47.1 µM
DU-145 prostate
  GI50: 33.9 µM
  TGI: > 100 µM
SK-OV-3 ovarian
  GI50: 29.9 µM
  TGI: > 93.3 µM
SW-620 colon
  GI50: 3.59 µM
  TGI: 17.5 µM
NCI-H460 NSCLC
  GI50: 35.9 µM
  TGI: > 100 µM
SN12C renal
  GI50: 48.2 µM
  TGI: > 100 µM
PC-3 prostate
  GI50: 28.3 µM
  TGI: > 96.5 µM
A549 NSCLC
  GI50: 47.6 µM
  TGI: > 100 µM
HOP-62 NSCLC
  GI50: 29.2 µM
  TGI: > 90.6 µM

Reference: PubChem BioAssay (NCI)
